The values that follow are results of earlier work, collected in patent US6542858B1, “Pharmacokinetic-based drug design tool and method” (Lion Bioscience AG, priority 1998, dated 2003).

SMILES strings stand for the structures.

For data set [1] the following is noted: Plasma Kinetics; mass model parameter.

As to `Nc1nc2c(ncn2COC(CO)CO)c(=O)[nH]1.[Na]` [Gancyclovir, 9-(1,3-dihydroxy-2-propoxymethyl)guanine, monosodium salt], the in vivo biotransformation result is listed as “no in vivo biotransformation”. Also, the absorption result (in vivo) was “poorly absorbed”. For the same molecule, the k21 in data set [1] is recorded as 0.670.
